# In patent US6277886A (priority 1996, dated 2001):
# Where a name gives a salt, the structure may show the parent alone. Read-outs that look alike come from different tables or passages of the source.
# Legend:
# MAO-A = MAO-A (Rattus norvegicus, UniProt P21396); assay: in vivo; conditions: for ED50: rat, read-out: IC-50 for Inhibition of MAO-A
# Protocol: (§1) Rats (male Sprague-Dawley-derived) weighing 250±20 g were treated with one of the enantionmers or the racemic form of PAI by intraperitoneal injection (ip) or oral gavage (po), and decapitated 1h or 2h later respectively. Groups of three rates were used for each dose level of substance, and MAO activity determined in brain and liver using the general technique described in Example 19 of U.S. Pat. No. 5,387,612. The amount of protein in each incubation was determined using the Follin-Lowrymethod, and enzyme activity calculated as nmol of substrate metabolized per hour of incubation for each mg of protein. Activity of MAO in tissues from animals treated with the enantiomers or the racemic form of PAI was expressed as a percentage of the enzyme activity in a group of control animals administered vehicle (water for oral administration, 0.9% saline for ip injection).
# MAO-B [1] = molecular target: MAO-B (Rattus norvegicus, UniProt P19643); assay: in vivo; conditions: for activity for inhibition of MAO-B: in words; for ED50: rat
# Protocol: as §1
# ICR male mice = assay: Hypobaric hypoxia model, survival time of mice at 200 mmHg; assay type: in vivo; conditions: control = 100
# Description: The model used is analogous to the one described by M. Nakanishi et al., Life Sci. 13: 467-476 (1973); and by Y'Oshiro et al., J. Med. Chem. 34: 2014-2023 (1991). A group of 4 ICR male mice each weighing 20-25 g were placed in a 2.5 L glass chamber (A) at atmospheric pressure. Chamber A is connected to a 12 L chamber (B) through a valve which is initially […] closed. The air in chamber B was evacuated to a pressure of 100 mmHg. The valve between the two chambers was opened rapidly, whereupon the pressure in chamber A fell within 14 seconds to 200 mmHg. The survival time of the mice in chamber A was determined to a maximum hypobaric exposure of 15 minutes. Effect of drug pretreatment on survival is calculated as the percent of the survivai time of the drug-treated group as compared to saline-injected or vehicle-injected group. Control groups were tested twice, before and after each experiment and consisted of 12 to 16 mice, 4 per group. Each tested group always consisted of 4 mice in order to ensure a constant residual volume of oxygen in all tests. […] The effect of each dose of the test drug was determined in duplicate, using a total of 8 mice, 4 per group. All drugs were administered i.p. one hour prior to hypoxia. Positive reference drugs were sodium pentobarbital at a dose of 40 mg/kg, or diazepam at a dose of 10 mg.kg, given 0.5 hour prior to hypoxia.
# MAO-B [2] = conditions: in vitro; cited from earlier work
# rat cerebellum cells = conditions: in words; cited from earlier work
# MAO-A/MAO-B = conditions: in vitro; cited from earlier work
# [3] = tested on: male Wistar rats after middle cerebral artery occlusion (MCA-O)
# Description: In order to expose the left middle cerebral artery, a cut was made in the temporal muscle. The tip of the coronoid process of mandible was excised as well and removed with a fine rongeur. Craniectomy was made with a dental drill at the junction between the median wall and the roof of the inferotemporal fossa.
# The dura matter was opened carefully using a 27 gauge needle. […] Following this, the temporalis muscle was sutured and laid over the craniectomy site. The skin was closed with a running 3-0 silk suture. […] The volume of brain tissue incurring damage following ischemia was determined.
# rat optic nerve = conditions: in words; cited from earlier work
# [4] = tested on: noradrenaline depletion in rodents; conditions: in words; cited from earlier work
# noradrenaline uptake = conditions: in words; cited from earlier work
# [5] = tested on: pressor response to catecholamines in the cat; assay: Pressor response to catecholamines in the anesthetized cat before and after S(-)PAI; assay type: in vivo; conditions: before S(-)PAI
# Protocol: Cats were anesthetized with i.v. nembutal 25 mg/kg. Anesthesia was maintained by additional injections of nembutal, 5 mg/kg, as needed. The femoral artery was cannulated and connected to a Statham pressure transducer for blood pressure recordings on a Grass multichannel Polygraph. The femoral vein was cannulated for i.v. injection of drugs.
# [6] = tested on: reserpine induced ptosis in rats; assay: Reserpine-induced ptosis in rats; assay type: in vivo; conditions: reserpine 5 mg/kg i.p., 0-4 scale, 4 = eyes completely open, saline 0.86
# Description: Reserpine-induced ptosis and its reversal test. Reserpine causes depletion of catecholamine stores, especially norepinephrine. This effect in the live animal is manifested among other things, in ptosis. Drugs that can prevent or inhibit reserpine-induced ptosis act either directly as noradrenergic agonists, or indirectly by decreasing or preventing the metabolic elimination of endogenous norepinephrine. MAO inhibitors belong to the latter category.
# human subjects = conditions: cited from earlier work
# nerve cell death = conditions: sub-inhibitory levels; in words; cited from earlier work
# [7] = po liver, 2 h after oral gavage
# [8] = 10 mg/kg i.p., one hour prior to hypoxia
# [9] = 50 mg/kg i.p., one hour prior to hypoxia
# [10] = 100 mg/kg i.p., one hour prior to hypoxia
# Chain of MAO-B (Rattus norvegicus, UniProt P19643) (P19643 whole entry): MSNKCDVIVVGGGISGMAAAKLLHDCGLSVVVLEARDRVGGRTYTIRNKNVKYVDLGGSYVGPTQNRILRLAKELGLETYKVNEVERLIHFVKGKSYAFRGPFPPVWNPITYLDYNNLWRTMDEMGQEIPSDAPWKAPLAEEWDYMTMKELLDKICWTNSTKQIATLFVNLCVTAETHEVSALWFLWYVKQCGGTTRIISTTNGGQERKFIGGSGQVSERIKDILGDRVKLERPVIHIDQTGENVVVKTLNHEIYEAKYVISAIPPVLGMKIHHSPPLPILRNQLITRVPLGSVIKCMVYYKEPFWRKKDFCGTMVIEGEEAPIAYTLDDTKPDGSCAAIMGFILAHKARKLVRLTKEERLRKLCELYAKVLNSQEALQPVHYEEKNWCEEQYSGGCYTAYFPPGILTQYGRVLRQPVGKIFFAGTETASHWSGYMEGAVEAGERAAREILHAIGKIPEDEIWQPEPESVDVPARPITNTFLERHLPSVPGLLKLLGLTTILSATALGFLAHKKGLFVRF
# Chain of MAO-A (P21396 whole entry): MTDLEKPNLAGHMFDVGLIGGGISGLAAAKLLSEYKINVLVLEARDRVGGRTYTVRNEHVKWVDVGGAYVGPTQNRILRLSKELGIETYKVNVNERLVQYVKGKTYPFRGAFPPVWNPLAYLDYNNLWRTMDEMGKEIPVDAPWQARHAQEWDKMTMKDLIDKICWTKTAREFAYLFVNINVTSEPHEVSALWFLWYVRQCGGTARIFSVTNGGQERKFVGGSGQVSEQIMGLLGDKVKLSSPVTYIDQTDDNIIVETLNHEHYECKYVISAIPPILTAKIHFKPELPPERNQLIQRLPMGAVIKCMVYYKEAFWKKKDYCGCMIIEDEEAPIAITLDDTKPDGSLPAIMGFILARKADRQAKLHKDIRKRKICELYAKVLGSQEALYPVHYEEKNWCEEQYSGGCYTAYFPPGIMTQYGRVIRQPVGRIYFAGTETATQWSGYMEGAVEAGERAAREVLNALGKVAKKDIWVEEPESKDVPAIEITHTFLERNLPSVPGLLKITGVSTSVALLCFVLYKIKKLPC
structure (smiles),measurement,setting,value
"C#CCN[C@H]1CCc2ccccc21 [S(-)PAI mesylate, S-(-)-N-Propargyl-1-aminoindan mesylate]",activity for inhibition of MAO-A,MAO-A; in words,extremely low activity
same,IC-50 for Inhibition of MAO-A,"MAO-A; ip liver, 1 h after ip injection",> 10 mg/kg
same,IC-50 for Inhibition of MAO-A,MAO-A; [7],> 10 mg/kg
same,ED50,"MAO-A; ip, 1 h",> 10 mg/kg
same,ED50,"MAO-A; po, 2 h",> 10 mg/kg
same,activity for inhibition of MAO-B,MAO-B [1],extremely low activity
same,ED50,"MAO-B [1]; ip, 1 h, read-out: IC-50 for Inhibition of MAO-B, ip brain, 1 h after ip injection",> 10 mg/kg
same,ED50,"MAO-B [1]; ip, 1 h, read-out: IC-50 for Inhibition of MAO-B, ip liver, 1 h after ip injection",> 10 mg/kg
same,ED50,"MAO-B [1]; po, 2 h, read-out: IC-50 for Inhibition of MAO-B, po brain, 2 h after oral gavage",> 10 mg/kg
same,ED50,"MAO-B [1]; po, 2 h, read-out: IC-50 for Inhibition of MAO-B, po liver, 2 h after oral gavage",> 10 mg/kg
same,% protection ± SD relative to control (relative survival time),ICR male mice; [8],84 ± 47%
same,% protection ± SD relative to control (relative survival time),ICR male mice; [9],406 ± 247%
same,% protection ± SD relative to control (relative survival time),ICR male mice; [10],390 ± 197%
"C#CCN[C@@H]1CCc2ccccc21 [R(+)PAI mesylate, reference compound]",IC-50 for Inhibition of MAO-A,MAO-A; [7],> 5 mg/kg
same,ED50,"MAO-A; po, 2 h",> 5 mg/kg
same,activity for inhibition of MAO-B,MAO-B [1],selectivity
same,% protection ± SD relative to control (relative survival time),ICR male mice; [8],116 ± 47%
same,% protection ± SD relative to control (relative survival time),ICR male mice; [9],410 ± 151%
same,% protection ± SD relative to control (relative survival time),ICR male mice; [10],358 ± 179%
"C#CCN[C@@H]1CCc2ccccc21 [R(+)PAI, R(+) enantiomer of N-propargyl-1-aminoindan]",activity as inhibitor of MAO-B relative to S(-)PAI,MAO-B [2],"~7,000 times more active"
same,prevention of NMDA induced cell death,rat cerebellum cells,"active as a ""neuroprotective agent"""
same,selectivity for MAO-B than MAO-A,MAO-A/MAO-B,more than 29 times more selective
same,improvement in neurological score severity,[3],~20%
same,slowing neuronal degeneration after crushing the rat optic nerve,rat optic nerve,slowing neuronal degeneration
C#CCN(C)[C@@H](C)Cc1ccccc1 [S(+) deprenyl],neuroprotective activity (percent restoration of noradrenaline after DSP-4),[4],"far lower ""neuroprotective activity"" in comparison with R(-) deprenyl"
same,noradrenaline uptake inhibition compared to R(-) deprenyl,noradrenaline uptake,superior noradrenaline uptake inhibitor as compared to R(-) deprenyl
"NCCc1ccc(O)cc1 [tyramine, reference compound]",Δ mean arterial pressure before S(-)PAI,[5]; 2.0 μg/kg i.v.,11 mmHg
same,Δ mean arterial pressure before S(-)PAI,[5]; 5.0 μg/kg i.v.,19 mmHg
same,Δ mean arterial pressure before S(-)PAI,[5]; 10.0 μg/kg i.v.,26 mmHg
same,Δ mean arterial pressure before S(-)PAI,[5]; 20.0 μg/kg i.v.,42 mmHg
CN1C(=O)CN=C(c2ccccc2)c2cc(Cl)ccc21 [Diazepam],% protection ± SD relative to control (relative survival time),"ICR male mice; 10 mg/kg i.p., 0.5 hour prior to hypoxia",430 ± 59%
CCCC(C)C1(CC)C(=O)NC(=O)NC1=O (stereo not shown) [Pentobarbital],% protection ± SD relative to control (relative survival time),"ICR male mice; 20 mg/kg i.p., 0.5 hour prior to hypoxia",325 ± 166%
"CNC[C@H](O)c1cccc(O)c1 [phenylephrine, reference compound]",Δ mean arterial pressure before S(-)PAI,[5]; 0.20 μg/kg i.v.,9 mmHg
same,Δ mean arterial pressure before S(-)PAI,[5]; 0.50 μg/kg i.v.,17 mmHg
same,Δ mean arterial pressure before S(-)PAI,[5]; 1.0 μg/kg i.v.,21 mmHg
same,Δ mean arterial pressure before S(-)PAI,[5]; 2.0 μg/kg i.v.,40 mmHg
"NC[C@H](O)c1ccc(O)c(O)c1 [norepinephrine, reference compound]",Δ mean arterial pressure before S(-)PAI,[5]; 0.02 μg/kg i.v.,8 mmHg
same,Δ mean arterial pressure before S(-)PAI,[5]; 0.05 μg/kg i.v.,23 mmHg
same,Δ mean arterial pressure before S(-)PAI,[5]; 0.10 μg/kg i.v.,31 mmHg
same,Δ mean arterial pressure before S(-)PAI,[5]; 0.20 μg/kg i.v.,46 mmHg
C#CCN(C)[C@H](C)Cc1ccccc1 [R(-)Deprenyl],Mean score of reserpine-induced ptosis,[6]; 5 mg/kg i.p.,1.3
same,Mean score of reserpine-induced ptosis,[6]; 10 mg/kg i.p.,3.16
same,neuroprotective activity (percent restoration of noradrenaline after DSP-4),[4],"displayed ""neuroprotective activity"""
same,dose at which cardiovascular function could be compromised,"human subjects; human subjects, daily dose, recommended dose 10 mg",30 to 40 mg
same,safety factor in clinical practice,human subjects; human,3 to 4
same,prevention of nerve cell death,nerve cell death,prevent nerve cell death
